Results: patent US20210188817A1, “OPHTHALMIC COMPOSITIONS AND METHODS FOR THE TREATMENT OF EYE DISORDERS AND SKIN DISEASES” (Cellix Bio Private Limited, priority 2018, published 2021)

Columns and labels:
[1] = Procedure: SINGLE DOSE OCULAR PHARMACOKINETIC STUDY OF CLX-162 FORMULATION IN MALE NEW ZEALAND WHITE RABBITS: The purpose of this study was to determine the ocular pharmacokinetics of CLX-162, Brimonidine R-(+)-lipoate when administered to male New Zealand white rabbits by topical ocular route.
Aqueous humor samples were collected at pre-determined time points (0.25, 0.5, 1, 2, 4, 8 and 12 h from both eyes) and stored at −70° C. until analysis. Brimonidine was quantified in aqueous humor samples of New Zealand White rabbits, using a specific sensitive LC-MS/MS fit for purpose analytical method.
Brimonidine Pharmacokinetic parameters in aqueous humor of New Zealand white rabbits: […]

[2] = tested on: P. acnes, Staphylococcus aureus (S. aureus), and Staphylococcus epidermidis (S. epidermidis); conditions: twofold serial dilutions 0.24 to 500 μg ml-1, 72, 24, 48 hours for P. acnes, OD600
Source text: (§1) ANTI-MICROBIAL PROPERTIES OF CLX-SYN-G162B-C02 AND BRIMONIDINE MALEATE: To compare dose-response effects of CLX-SYN-G162B-C02 [brimonidine eicosapentaenoate salt], compound of present invention and brimonidine maleate [referred as brimonidine], comparative example on the growth of bacteria that are present in the skin flora, P. acnes, Staphylococcus aureus (S. aureus), and Staphylococcus epidermidis (S. epidermidis) were co-cultured with either agent at various concentrations for 72, 24, and 48 hours, respectively.
(§2) Bacterial growth was evaluated by measuring absorbance at 600 nm. The length of cultivation period was determined based on the growth speed of the bacteria. Both, CLX-SYN-G162B-C02 and brimonidine were tested at concentrations of twofold serial dilutions from 0.24 to 500 μg ml-1.

[3] = tested on: P. acnes; conditions: 72 hours co-culture; compared with S. aureus and S. epidermidis
Source text: as §1, §2

[4] = brimonidine in aqueous humor, 50 μL topical ocular, each eye, New Zealand white rabbits

| AUC profile ([1]; aqueous humor, ocular administration, comparator not stated) | AUCinf [1, 4] [ng·h/mL] | AUClast [1, 4] [ng·h/mL] | Cmax [1, 4] [ng/mL] | MRTlast [1, 4] [min] | T1/2 [1, 4] [min] | Tmax [1, 4] [min] | Time to maximal aqueous humor concentration ([1]; topical ocular) [h] | Brimonidine levels detectable in the aqueous humor, time post dose ([1]; topical ocular, sampling 0.25-12 h) | Compound | minimal inhibitory concentration (MIC) [2] | half maximal effective concentration on P. acnes growth [3] |
| --- | --- | --- | --- | --- | --- | --- | --- | --- | --- | --- | --- |
| better AUC profile | 1953 | 1875 | 1073 | 75.6 | 49.2 | 30 | ≤ 0.5 | up to 4 h | Brc1c(NC2=NCCN2)ccc2nccnc12.O=C(O)CCCC[C@@H]1CCSS1 [CLX-162, Brimonidine R-(+)-lipoate] | – | – |
| – | – | – | – | – | – | – | – | – | Brimonidine Eicosapentaenoate [CLX-SYN-G162B-C02] | had shown to prevent bacterial growth | lowest among the bacteria tested |
| – | – | – | – | – | – | – | – | – | brimonidine maleate [reference compound] | no MIC | – |
